Laboratory results reported in patent US9585840B1, “Redox active cerium oxide nanoparticles and associated methods” (University of Central Florida Research Foundation, Inc., priority 2009, dated 2017).

Key:
[1] = test system: SCL-1 cells; test: Oxidized (carbonylated) proteins, Oxyblot, tumor cells; format: cell-based, human; conditions: 250 μM H2O2 for 1 h
Method: Dermal fibroblasts or tumor cells were grown to subconfluence on tissue culture dishes. After removal of serum-containing medium, HDF were cultured in CM^HDF and either mock-treated or pretreated for 40 h with 150 μM CeO2 nanoparticles prior to addition of 10 ng rTGFβ1/ml for additional 8 h. Tumor cells were mock-treated or treated with 150 μM CNP for 16 h. As positive control, the cells were treated with 250 μM H2O2 for 1 h. Thereafter, cells were lysed and carbonyl groups of oxidized proteins were detected with the OxyBlot™ Protein Oxidation Detection Kit, following the manufacturer's protocol. Briefly, the protein concentration was determined by using a modified Lowry method (Bio-Rad DC). The protein amounts of the samples were aligned. 5 μg of this cell lysate was incubated with 2,4-dinitrophenyl (DNP) hydrazine to form the DNP hydrazone derivatives. Labeled proteins were separated by SDS-PAGE and immunostained using rabbit anti-DNP antiserum (1:500) and goat anti-rabbit IgG conjugated to horseradish peroxidase (1:2000). Blots were developed by enhanced chemiluminescence.

[2] = test system: SCL-1 cells; test: Intracellular ROS, DCF fluorescence, tumor cells; format: cell-based, human; conditions: 250 μM H2O2, technical control; data not shown
Method: Generation of ROS was determined using 2′,7′-Dichlorodihydrofluorescein diacetate (H2DCF-DA), a dye that diffuses across the lipid membranes into cells and is subsequently oxidized by intracellular ROS forming the highly fluorescent DCF. Subconfluent HDF and SCL-1 tumor cells were exposed to 50 μM or 150 μM CNP in serum-free DMEM in 24-well plates. Untreated subconfluent SCL-1 cells were used as negative controls. Medium was substituted after 24 h by 100 μM H2DCF-DA containing Hanks Balanced Salt Solution (HESS). DCF fluorescence was detected at an excitation wavelength of 485 nm and emission wavelength of 520 nm in 15 minutes intervals in a FLUOstar OPTIMA plate reader (BMG Labtech, Offenburg, Germany). Mean fluorescence intensities and standard error of mean were determined for each reading point by using the statistical software Prism 3.0 (GraphPad, San Diego, Calif., USA).

[3] = test system: αSMA; test: TGFβ1-mediated αSMA protein expression in human dermal fibroblasts, western blot; format: cell-based; conditions: HDF; for TGFβ1-triggered upregulation of αSMA protein levels: NAC 5.0 mM 4 h or Na2SeO3 0.5 μM 24 h pretreatment, rTGFβ1 5 ng/ml, 48 h after growth factor
Method: Human dermal fibroblasts (HDF) were established by outgrowth from foreskin biopsies of healthy human donors with an age of 3-6 years. Cells were used in passages 2-12, corresponding to cumulative population doubling levels of 3-27 [15]. Dermal fibroblasts and the squamous carcinoma cell line SCL-1, originally derived from the face of a person (generously provided by Prof. Dr Norbert Fusenig, DKFZ Heidelberg, Germany), were cultured as described. Myofibroblasts (MF) were generated by treatment of HDFs with different concentrations of recombinant TGFβ1 (5 ng/ml) for 48 h in HDF conditioned medium (CMHDF).
SDS-PAGE was performed according to the standard protocols published elsewhere with minor modifications. Briefly, cells were lysed after incubation with rTGFβ1 in 1% SDS with 1:1000 protease inhibitor cocktail (Sigma; Taufkirchen, Germany). After sonication, the protein concentration was determined by using a modified Lowry method (Bio-Rad DC). 2×SDS-PAGE sample buffer (1.5 M Tris-HCl pH 6.8, 6 ml 20% SDS, 30 ml glycerol, 15 ml β-mercaptoethanol and 1.8 mg bromophenol blue was added, and after heating, the samples (10 μg total protein/lane) were applied to 10% (w/v) SDS-polyacrylamide gels. After electroblotting, immunodetection was carried out (1:1000 dilution of primary antibodies (mouse monoclonal anti-SMA and tubulin), 1:20000 dilution of anti-mouse antibody conjugated to HRP). Antigen-antibody complexes were visualized by an enhanced chemiluminescence system. Alpha-tubulin was used as internal control for equal loading.

[4] = test system: HIF-1; test: HIF-1 protein expression, western blot, tumor cells; format: cell-based, human; conditions: SCL-1; 100 μM cobalt chloride; 4 h
[5] = test system: HIF-1; test: HIF-1 protein expression, western blot, fibroblasts; format: cell-based, human; conditions: HDF; 100 μM cobalt chloride; 4 h
[6] = test system: αSMA mRNA; test: αSMA mRNA, quantitative real-time RT-PCR in human dermal fibroblasts; format: cell-based; conditions: HDF; 24 h after treatment; normalised to HPRT1
Method: Total RNA was isolated and transcribed into cDNA as described. Expression of mRNA was analyzed by real-time RT-PCR using a LightCycler system (Roche; Mannheim, Germany) as described. Real-time RT-PCR was performed with 40 ng cDNA in glass capillaries containing LightCycler FastStart DNA Master SYBR Green I Reaction Mix (Roche), 2 mM MgCl2 and 1 μM of primers. Quantitation of the PCR amplicons was performed using the LightCycler Software. Hypoxanthine phosphoribosyltransferase (HPRT1) was used as internal normalization control.

[7] = mouse, in vivo, iv, 0.5 mg/kg
Method: Eight-week-old, CD-1 mice were divided into two groups. Controls were given weekly doses of 100 μl sterile PBS only by intravenous (IV) administration. The nanoceria group received five doses (one dose a week) of 0.5 mg/kg of nanoceria suspended in 100 μl of sterile saline (IV). Both groups were sacrified on the sixth week. Skin tissue from the back of each animal was excised and hair removed. The tissue was patted dry, weighed and placed in 70% nitric acid overnight to start the digestion process. Samples were then microwave digested. The temperature was ramped to 200° C. over 20 min and held there for another 20 min. Samples were then boiled down to less than 1 ml each and reconstituted in water to an exact volume of 10 ml. Cerium levels were assessed using inductively coupled plasma mass spectroscopy (ICP-MS).

[8] = test system: human dermal fibroblasts

## OO [H2O2, Hydrogen peroxide]
[1]
  oxidized proteins, positive control: increase in oxidized proteins
[2]
  intracellular ROS level: further increased

## CC(=O)N[C@@H](CS)C(=O)O [NAC, N-acetyl-L-cysteine]
[3]
  TGFβ1-triggered upregulation of αSMA protein levels: completely prevented

## [Cl][Co][Cl] [cobalt chloride]
[4]
  HIF-1 protein levels compared to mock-treated cells: significant increase
[5]
  HIF-1 protein expression: not affected

## O=[Se]([O-])[O-].[Na+].[Na+] [selenite, sodium selenite]
[3]
  TGFβ1-triggered upregulation of αSMA protein levels: significantly lowered

## TGFβ1: Recombinant human TGFβ1 from R&D Systems, stimulus for myofibroblast formation
[3]; rTGFβ1 5 ng/ml for 8 to 48 h, starting at 16 h post treatment
  αSMA protein amount compared with mock-treated control cells: significant time-dependent increase
[6]
  increase in αSMA steady-state mRNA levels compared to mock-treated controls: 10 fold

## cerium oxide nanoparticles [CNP]
[7]
  increase in the amount of CeO2 per gram skin tissue vs mock-treated mice: up to 8 fold
[8]
  cell morphology: No change in morphology
